Patent publication US20160237160A1, “ANTI-TWEAKR ANTIBODIES AND USES THEREOF” (BAYER PHARMA AKTIENGESELLSCHAFT, priority 2013, published 2016)

Key:
[1] = system: SCaBER xenograft (bladder cancer), NMRI nude mice; assay: Xenograft anti-tumor efficacy; format: in vivo; conditions: final tumor weight, TPP-2090 10 mg/kg twice weekly for 4 weeks
[2] = system: Ku-19-19 xenograft (bladder cancer); assay: Xenograft anti-tumor efficacy; format: in vivo, mice; conditions: final tumor weight, TPP-2090 10 mg/kg twice weekly for 4 weeks
Method: (§1) After tumor growth to a size of approximately 40 mm^2 mice were randomized into control and treatment groups with a respective group size of n=8-10. Mice were treated with various doses of anti-TWEAKR antibodies diluted in PBS by intravenous injection (i.v.) into the tail vein with a twice per week schedule (q4dx3: applications twice per week, three applications in total; q4dx8: applications twice per week, eight applications in total). Combination therapy partners such as Regorafenib (10 mg/kg daily, per os) and the PI3K-inhibitor 1 (10 mg/kg, BID, 2d on, 5d off (applications twice daily on two consecutive days, followed by five days without treatment), i.v.) were diluted in their respective formulations whereas the standard of care therapies Irinotecan (5 mg/kg, 4d on, 3d off (applications once daily on four consecutive days followed by three days without treatment) i.v.) and Paclitaxel (16 mg/kg, q7dx4 (applications once per week, four applications in total), i.v.) were diluted in 0.9% NaCl. Animals injected with PBS served as the control (vehicle) group. The applied volume of the compounds was 5 ml/kg body weight per mouse.
(§2) Tumor growth was monitored 2-3 times per week by caliper measurement (length×width in mm) as well as body weight (in g). […]

[3] = system: BXF1228 patient-derived bladder cancer model; assay: Xenograft anti-tumor efficacy; format: in vivo, mice; conditions: final tumor weight, TPP-2090 10 mg/kg twice weekly for 4 weeks
[4] = system: BXF1352 patient-derived bladder cancer model; assay: Xenograft anti-tumor efficacy; format: in vivo, mice; conditions: final tumor weight, TPP-2090 10 mg/kg twice weekly for 4 weeks
Method: as §1, §2

[5] = system: Co5896 patient-derived colorectal cancer model; assay: Xenograft anti-tumor efficacy; format: in vivo, mice; conditions: tumor weight, TPP-2090 10 mg/kg twice weekly for 4 weeks
Method: as §1
(§3) Tumor growth was monitored 2-3 times per week by caliper measurement (length×width in mm) as well as body weight (in g). At the end of study tumors were dissected, weighted and used for the calculation of tumor-to-control (T/C) ratios (mean tumor weight of treated animals divided by mean tumor weight of control/vehicle animals). […] 2×10^6 tumor cells in 100% Matrigel were s.c. inoculated in female nude mice. After 7d established tumors with a size of about 40 mm^2 were treated with 0.3 mg/kg, 1 mg/kg and 3 mg/kg of antibodies (i.v., q4dx3: applications twice per week, three applications in total).
(§4) Animal studies were conducted as described in example 8 for further human colorectal cancer tumor cell lines Colo205 and LoVo and for further human colorectal cancer patient-derived models Co7553, Co5896, Co5676, Co5841, CXF 1103 and CXF 533. […] The formulation of regorafenib is described in example 8.

[6] = system: Colo205 xenograft (colorectal cancer); assay: Xenograft anti-tumor efficacy; format: in vivo, mice; conditions: tumor weight, TPP-2090 10 mg/kg twice weekly for 4 weeks
Method: as §1, §3, §4

[7] = system: LoVo xenograft (colorectal cancer); assay: Xenograft anti-tumor efficacy; format: in vivo, mice; conditions: tumor weight, TPP-2090 10 mg/kg twice weekly for 4 weeks
Method: as §1, §3, §4

[8] = target: T1, TWEAKR protein (TPP-2305) (Homo sapiens, UniProt Q9NP84); assay: Biacore monovalent KD with TWEAKR protein; format: binding
T1 construct: TPP-2305; hTNFRSF12Aaa28-80; Human; 30R-AT080; 168; purchased Fitzgerald Inc 30R-AT080
Method: Binding affinities of anti-TWEAKR antibodies were determined by surface plasmon resonance analysis on a Biacore T100 instrument (GE Healthcare Biacore, Inc.). Antibodies were immobilized onto a CM5 sensor chip through an indirect capturing reagent, anti-human IgG(Fc). Reagents from the “Human Antibody Capture Kit” (BR-1008-39, GE Healthcare Biacore, Inc.) were used as described by the manufacturer. Anti-TWEAKR antibodies were injected at a concentration of 10 μg/ml at 10 μl/min for 10 sec.
Sensorgrams were generated after in-line reference cell correction followed by buffer sample subtraction. The dissociation equilibrium constant (KD) was calculated based on the ratio of association (kon) and dissociation rated (koff) constants, obtained by fitting sensorgrams with a first order 1:1 binding model.

[9] = system: 786-O cells; assay: FACS binding to cell surface; set-up: species or system human; conditions: 10 μg/ml
Method: (§5) To determine the binding characteristics of the anti-TWEAKR antibodies on mouse and human cancer cell lines, binding was tested by flow cytometry to a panel of cell lines. Adherent cells were washed twice with PBS without Ca and Mg (Biochrom #L1825: aqueous solution containing 8000 mg/l NaCl, 200 mg/l KCl, 1150 mg/l Na2HPO4, and 200 mg/l KH2PO4) and detached by enzyme-free PBS based cell dissociation buffer (Invitrogen). Cells were suspended at approximately 10^5 cells/well in FACS buffer (PBS without Ca/Mg, containing 3% FCS, Biochrom). Cells were centrifuged (250 g, 5 min, 4° C.) and supernatant discarded. Cells were resuspended in dilutions of the antibodies of interest (10 μg/ml in 80 μl if not indicated otherwise) in FACS buffer, and incubated on ice for 1 h. In the following cells were washed once with 1000 cold FACS buffer and 80 μl secondary antibody diluted at 1:150 (PE goat anti-human IgG, Dianova #109-115-098, or PE Goat Anti-Mouse IgG, Jackson Immuno Research #115-115-164) was added. After incubation for 1 h on ice cells were again washed with cold FACS buffer, resuspended in 1000 FACS buffer and analyzed by flow cytometry using a FACS-Array (BD Biosciences). Results are calculated as Geo Mean of fluorescence detected by the antibody of interest subtracted by background fluorescence as measured by detection with the secondary antibody alone. Values are scored according to the following system: Geo Mean−Geo Mean of secondary antibody alone >10: +, >100: ++, >1000: +++, 10000: ++++, close to category border in ( ).

[10] = system: A375 cells; assay: FACS binding to cell surface; set-up: species or system human; conditions: 10 μg/ml
Method: as §5

[11] = system: HT-29 cells; assay: FACS binding to cell surface; set-up: species or system human; conditions: HT29; 10 μg/ml
Method: as §5

[12] = system: NCI-H322 cells; assay: FACS binding to cell surface; set-up: species or system human; conditions: 10 μg/ml
Method: as §5

[13] = system: SK-OV-3 cells; assay: FACS binding to cell surface; set-up: species or system human; conditions: SKOV-3; 10 μg/ml
Method: as §5

[14] = system: WiDr cells; assay: FACS binding to cell surface; set-up: species or system human; conditions: 10 μg/ml
Method: as §5

[15] = system: 786-O cells; assay: Inhibition of proliferation (Cell Titer Glo); format: cell-based, human; conditions: 96h, 100 μg/ml antibody or *100 ng/ml TWEAK
Method: (§6) Therefore cells were plated in 96well plates in 750 assay medium (growth media from Table 21, plus 100 ng/ml IFN gamma for 786-O cells) at the following cell numbers: WiDr cells 3000 cells/well, 786-O cells 2500 cells/well. 24 h later cells were incubated with anti-TWEAKR antibodies (see Table 26), recombinant human TWEAK or isotype control IgG (not shown) at the indicated concentrations (antibodies from 0.03-300 μg/ml, TWEAK 100 or 300 ng/ml). At the time of antibody addition cell viability was determined in sister plates (time point zero): therefore 750/well CTG solution (Promega Cell Titer Glo solution (catalog # G755B and G756B) was added to the cells, incubated for 10 minutes and luminescence was read on a Victor V (Perkin Elmer). 96 h after incubation with the agents, cell viability was determined in the assay plates by addition of 100 μl/well CTG solution, 10 min incubation and reading of luminescence. Proliferation in control wells was calculated by subtracting time zero values from the luminescence values in the untreated control wells. % of cell proliferation was calculated in the compound treated wells as compared to the untreated control wells.
(§7) To evaluate, whether this strong anti-proliferative activity can also be observed in a broader cell panel, in addition LOVO, NCI-H1975, SW-480 (all 3000 cells/well), HT-29 (4000 cells/well), A253 and SK-OV3 (both 2500 cells/well) cells were incubated with 100 μg/ml anti-TWEAKR antibodies or TWEAK ligand for the time periods as indicated in Table 27. All cells were seeded in the growth media indicated in Table 21 and for all cells except for WiDr cells 100 ng/ml IFNgamma was added to the assay medium when seeding the cells. The percentage of growth inhibition for treated cells as compared to proliferation in untreated control cells was measured and calculated as described above. As shown in Table 27 the antibodies of the current invention are more efficacious as compared to other known antibodies in inhibiting proliferation of various cancer cell lines at 100 μg/ml. In most experiments the antibodies of the current invention also show equal or stronger efficacy as compared to 100-300 ng/ml TWEAK ligand. Thus, the antibodies described in this invention are unique in their activity to induce apoptosis and proliferation inhibition in a broad panel of cancer cell lines.

[16] = system: A253 cells; assay: Inhibition of proliferation (Cell Titer Glo); format: cell-based, human; conditions: 72h, 100 μg/ml antibody or **300 ng/ml TWEAK
Method: as §6, §7

[17] = system: HT-29 cells; assay: Inhibition of proliferation (Cell Titer Glo); format: cell-based, human; conditions: 24h, 100 μg/ml antibody or **300 ng/ml TWEAK
Method: as §6, §7

[18] = system: Lovo cells; assay: Inhibition of proliferation (Cell Titer Glo); format: cell-based, human; conditions: 72h, 100 μg/ml antibody or *100 ng/ml TWEAK
Method: as §6, §7

[19] = system: NCI-H1975 cells; assay: Inhibition of proliferation (Cell Titer Glo); format: cell-based, human; conditions: 72h, 100 μg/ml antibody or *100 ng/ml TWEAK
Method: as §6, §7

[20] = system: SK-OV3 cells; assay: Inhibition of proliferation (Cell Titer Glo); format: cell-based, human; conditions: 96h, 100 μg/ml antibody
Method: as §6, §7

[21] = system: SW480 cells; assay: Inhibition of proliferation (Cell Titer Glo); format: cell-based, human; conditions: 72h, 100 μg/ml antibody or *100 ng/ml TWEAK
Method: as §6, §7

[22] = system: WiDr cells; assay: Inhibition of proliferation (Cell Titer Glo); format: cell-based, human; conditions: 96h, 100 μg/ml antibody, no IFN gamma
Method: All cells were seeded in the growth media indicated in Table 21 and for all cells except for WiDr cells 100 ng/ml IFNgamma was added to the assay medium when seeding the cells. […]

[23] = system: A375 cells; assay: IL-8 secretion ELISA; format: cell-based, human; conditions: 100 μg/ml, 24 h
Method: Therefore A375 cells were plated at 2500 cells/well in 96well plates in growth medium DMEM (Biochrom;# FG 0435, with stable Glutamin), 10% FCS. 24 h later cells were incubated with anti-TWEAKR antibodies, recombinant human TWEAK at various concentrations as indicated or corresponding isotype control IgG. 24 h after start of the incubation with the antibodies, cell supernatant or dilutions thereof were added to the Capture Elisa Plate of the human CXCL8/IL-8 ELISA Kit (R&D Systems DY208) and incubated over night at 4° C. by shaking 300 rpm. On the next day, samples were analyzed by using the human CXCL8/IL-8-ELISA Kit (R&D Systems DY208) according to the manufacturer's instructions. Optical density was measured at 450 nm (Tecan Spectra, Rainbow) together with background correction. To calculate absolute levels of IL-8 a standard curve using recombinant human IL-8 protein was applied according to the manufacturer's recommendations (R&D Systems).

[24] = target: TWEAKR (Homo sapiens, UniProt Q9NP84); conditions: published data; read-out: KD / binding affinity to TWEAKR (published); cited from earlier work

**Q.** For `Nc1ccn([C@@H]2O[C@H](CO)[C@@H](O)C2(F)F)c(=O)n1` [Gemcitabine, gemcitabine, reference compound], which T/C [1] is on record?
**A.** 0.85

**Q.** And the T/C [2]?
**A.** 0.07

**Q.** What about the T/C [3] of the same molecule?
**A.** 0.93

**Q.** With `N.N.[Cl][Pt][Cl]` [Oxaliplatin/Cisplatin, cisplatin, reference compound] as the molecule, how does the T/C [1] read?
**A.** 1.22

**Q.** What about the T/C [4] of the same molecule?
**A.** 0.85

**Q.** And the T/C [3]?
**A.** 0.84

**Q.** Which results are given for `CNC(=O)c1cc(Oc2ccc(NC(=O)Nc3ccc(Cl)c(C(F)(F)F)c3)c(F)c2)ccn1` [Regorafenib]?
**A.** Final T/C [5]: 0.67; Final T/C [6]: 0.42; Final T/C [7]: 0.63

**Q.** Which results are given for “PDL-192(TPP-1104): reference agonistic anti-TWEAKR antibody, human IgG1, variable domains from WO2009/020933; SEQ ID NO 127/128 [reference compound]”?
**A.** ka ([8]; first order 1:1 binding model): 1e+07 M⁻¹ s⁻¹; kd ([8]; first order 1:1 binding model): 0.038 s⁻¹; Kd ([8]; monovalent KD): 3.7 nM; GeoMean of Fluorescence minus GeoMean with the secondary antibody only [9]: 25283; GeoMean of Fluorescence minus GeoMean with the secondary antibody only [10]: 865; GeoMean of Fluorescence minus GeoMean with the secondary antibody only [11]: 2127; GeoMean of Fluorescence minus GeoMean with the secondary antibody only [12]: 330; GeoMean of Fluorescence minus GeoMean with the secondary antibody only [13]: 4053; GeoMean of Fluorescence minus GeoMean with the secondary antibody only [14]: 3563; % Inhibition of proliferation [15]: 41%; % Inhibition of proliferation [16]: 87%; % Inhibition of proliferation [17]: 62%; % Inhibition of proliferation [18]: 49%; % Inhibition of proliferation [19]: 46%; % Inhibition of proliferation [20]: 44%; % Inhibition of proliferation [21]: 27%; % Inhibition of proliferation [22]: 12%; IL-8 release, % of the activation as compared to 300 ng/ml TWEAK ligand [23]: 66%; Kd [24]: 5.5 nM
